Measurements from paper PMC6522510 (Nature Communications, 2019).
Read-outs that look alike come from different tables or passages of the source.

Key:
CHRF288-11 [1] = assay: Secondary dose-response HTS, Cell Titer Glo; type: cell-based, human; settings: Homo sapiens; secondary HTS, 72 h, average of triplicate; read-out: EC50 CHRF288-11
CMK = assay: Secondary dose-response HTS, Cell Titer Glo; type: cell-based, human; settings: Homo sapiens, CMK; secondary HTS, 72 h, average of triplicate; read-out: EC50 CMK
CMS [2] = assay: Secondary dose-response HTS, Cell Titer Glo; type: cell-based, human; settings: Homo sapiens; secondary HTS, 72 h, average of triplicate; read-out: EC50 CMS
ML2 = assay: Secondary dose-response HTS, Cell Titer Glo; type: cell-based, human; settings: Homo sapiens, ML-2
U937 [3] = assay: Secondary dose-response HTS, Cell Titer Glo; type: cell-based, human; settings: Homo sapiens, U-937; secondary HTS, 72 h, average of triplicate; read-out: EC50 U937
[4] = test system: panel of 8 AML cell lines; assay: Secondary dose-response HTS, whole panel; type: cell-based, human; settings: Homo sapiens; all cell lines; read-out: potency across subtypes in the secondary HTS
CHRF288-11 [5] = type: cell-based; settings: Homo sapiens; 72 h, Cell Titer Glo; read-out: IC50 CHRF288-11
CMS [6] = type: cell-based; settings: Homo sapiens; 72 h, Cell Titer Glo; read-out: IC50 CMS
ML-2 = type: cell-based; settings: Homo sapiens, 72 h, Cell Titer Glo
MOLM-13 = type: cell-based; settings: Homo sapiens, 72 h, Cell Titer Glo
THP-1 = type: cell-based; settings: Homo sapiens, 72 h, Cell Titer Glo
U937 [7] = type: cell-based; settings: Homo sapiens, U-937; 72 h, Cell Titer Glo
[8] = test system: AMKL primary AML blast samples; assay: Ex vivo drug treatment of primary AML blasts on mesenchymal stromal cells; type: cell-based; settings: Homo sapiens; primary blasts on MSC, 96 h
[9] = test system: Mll PTD/wt:Flt3 ITD/ITD double knock-in primary transplant blasts (bone marrow, spleen); assay: Accumulation in primary murine blasts; type: cell-based, mouse; settings: blasts from bone marrow or spleen
Experimental: Cells were washed twice with ice-cold PBS; cell pellets were solubilized in 400 µL 1 N NaOH and agitated (300 rpm) at room temperature for 2 h. Then samples were neutralized with […] 1 M HCl; a 25 µL aliquot of lysate was used to estimate protein concentration using a Pierce BCA protein assay kit (Thermo Scientific). Total radioactivity was measured by a Tri-Carb 4810TR liquid scintillation counter (Perkin-Elmer) after mixing the sample with 4 mL of Emulsifier Safe (Perkin Elmer); the results were normalized to total protein content as measured by a Pierce BCA protein assay kit. Three independent experiments were performed in triplicate.
Bone marrow and splenocytes were isolated from mice transplanted with dKI AML and CG-V617 AMKL. Following red blood cells lysis, dKI AML leukemic blasts from vehicle treated mice were evaluated for accumulation of cytarabine and gemcitabine using the uptake assay described above.
Supplementary Figure 5. Accumulation of cytarabine and gemcitabine .
unlabeled and [3H]-cytarabine (Ara- C) or gemcitabine ( Gem ). Intracellular Ara- C, Gem ,
scintillation counting and normalized to protein levels. Representative chromatogram for
as disintegrations per minute (DPM) over complete run time. (c) Percentage of total
independent experiments (N=9). (d) Accumulation was determined in cell lysate of bone
double knock-in primary transplant recipient. […]

[10] = test system: CHRF288-11-luciferase/YFP+ xenograft; assay: In vivo efficacy, survival; parameters: species or system NSG mice; settings: CHRF288-11 xenograft, 50 mg kg−1 q4d, i.p.
[11] = test system: ML-2-luciferase/YFP+ xenograft; assay: In vivo efficacy, survival; parameters: species or system NSG mice; settings: ML-2 xenograft, 50 mg kg−1 q4d, i.p.
[12] = test system: Mll-PTD/wt:Flt3ITD/ITD primary transplants; assay: In vivo efficacy, survival; parameters: species or system mice; settings: Mll-PTD/wt:Flt3ITD/ITD primary transplants, 50 mg kg−1 q4d, i.p.
[13] = test system: Mll-PTD/wt:Flt3ITD/ITD secondary transplants; assay: In vivo efficacy, survival; parameters: species or system mice; settings: for Median survival: i.p.
MV4-11 = assay: cells; parameters: species or system AML cell lines (8); Secondary HTS, 10-point dose-response in triplicate, Cell Titer Glo viability, four-parameter fit EC50; settings: Homo sapiens, MV4-11, 72 h, read-out: MV4-11
U937 [14] = assay: cells; parameters: species or system AML cell lines (8); Secondary HTS, 10-point dose-response in triplicate, Cell Titer Glo viability, four-parameter fit EC50; settings: Homo sapiens, U-937, 72 h, read-out: U937

Nc1ccn([C@@H]2O[C@H](CO)[C@@H](O)C2(F)F)c(=O)n1 [Gemcitabine, gemcitabine]
EC50 (CHRF288-11 [1]): 3 nM
EC50 (CMK): 10 nM
EC50 (CMS [2]): 30 nM
EC50 (ML2; secondary HTS, 72 h, average of triplicate, read-out: EC50 ML2): 2 nM
EC50 (ML2; secondary high-throughput screen, read-out: average effective concentration, ML-2): 1.7 nM
EC50 (U937 [3]): 10 nM
EC50 [4]: < 65 nM
IC50 (CHRF288-11 [5]): 0.4 nM
IC50 (CMS [6]): 1 nM
IC50 (ML-2): 0.6 nM
IC50 (MOLM-13): 0.7 nM
IC50 (THP-1): 3.5 nM
IC50 (U937 [7]): 31 nM
IC50 [8]: 108 nM
accumulation of total gemcitabine versus cytarabine [9]: 6.0–6.7 fold
Median survival [10]: 48 days
Median survival ([10]; x 2 cycles): 66 days
Median survival [11]: 45 days
Median survival [12]: 69 days
Median survival ([13]; 3 mg kg−1 daily x 5 days): 49 days
tolerability of the intermittent MTD ([13]; 120 mg kg−1 q3d): not well tolerated
Median survival ([13]; 120 mg kg−1 q3d (only 4 doses received)): 52 days
EC50 (MV4-11): 2.1 nM
EC50 (U937 [14]): 7.73 nM
